Assay results published in the NIST ThermoML archive (doi:10.1021/je700260f).
± gives the expanded uncertainty stated by the source.

Conditions: 283.15 K, Liquid, Vibrating tube method

FC(C(F)(F)F)C(F)(F)F [1,1,1,2,3,3,3-heptafluoropropane]
mass density (6297 kPa): 1481.2 ± 1.5 kg/m3 | mass density (6322 kPa): 1481.4 ± 1.5 kg/m3 | mass density (6344 kPa): 1481.4 ± 1.5 kg/m3 | mass density (6375 kPa): 1481.6 ± 1.5 kg/m3 | mass density (6406 kPa): 1481.7 ± 1.5 kg/m3 | mass density (6431 kPa): 1481.9 ± 1.5 kg/m3 | mass density (6461 kPa): 1481.9 ± 1.5 kg/m3 | mass density (6486 kPa): 1482.3 ± 1.5 kg/m3 | mass density (6517 kPa): 1482.3 ± 1.5 kg/m3 | mass density (6547 kPa): 1482.4 ± 1.5 kg/m3 | mass density (6577 kPa): 1482.5 ± 1.5 kg/m3 | mass density (6611 kPa): 1482.7 ± 1.5 kg/m3 | mass density (6635 kPa): 1482.9 ± 1.5 kg/m3 | mass density (6659 kPa): 1483.1 ± 1.5 kg/m3 | mass density (6686 kPa): 1483.1 ± 1.5 kg/m3 | mass density (6713 kPa): 1483.1 ± 1.5 kg/m3 | mass density (6738 kPa): 1483.2 ± 1.5 kg/m3 | mass density (6762 kPa): 1483.3 ± 1.5 kg/m3 | mass density (6790 kPa): 1483.5 ± 1.5 kg/m3 | mass density (6822 kPa): 1483.7 ± 1.5 kg/m3 | mass density (6853 kPa): 1483.9 ± 1.5 kg/m3 | mass density (6877 kPa): 1484 ± 1.5 kg/m3 | mass density (6913 kPa): 1484.2 ± 1.5 kg/m3 | mass density (6937 kPa): 1484.3 ± 1.5 kg/m3 | mass density (6998 kPa): 1484.5 ± 1.5 kg/m3 | mass density (7022 kPa): 1484.7 ± 1.5 kg/m3 | mass density (7050 kPa): 1484.8 ± 1.5 kg/m3 | mass density (7079 kPa): 1485 ± 1.5 kg/m3 | mass density (7107 kPa): 1485 ± 1.5 kg/m3 | mass density (7134 kPa): 1485.2 ± 1.5 kg/m3 | mass density (7154 kPa): 1485.2 ± 1.5 kg/m3 | mass density (7185 kPa): 1485.5 ± 1.5 kg/m3 | mass density (7209 kPa): 1485.6 ± 1.5 kg/m3 | mass density (7237 kPa): 1485.7 ± 1.5 kg/m3 | mass density (7266 kPa): 1485.9 ± 1.5 kg/m3 | mass density (7293 kPa): 1485.9 ± 1.5 kg/m3 | mass density (7325 kPa): 1486.1 ± 1.5 kg/m3 | mass density (7349 kPa): 1486.2 ± 1.5 kg/m3 | mass density (7385 kPa): 1486.3 ± 1.5 kg/m3 | mass density (7415 kPa): 1486.5 ± 1.5 kg/m3 | mass density (7443 kPa): 1486.7 ± 1.5 kg/m3 | mass density (8348 kPa): 1490.8 ± 1.5 kg/m3 | mass density (8383 kPa): 1491.1 ± 1.5 kg/m3 | mass density (8413 kPa): 1491.1 ± 1.5 kg/m3 | mass density (8453 kPa): 1491.2 ± 1.5 kg/m3 | mass density (8481 kPa): 1491.5 ± 1.5 kg/m3 | mass density (8520 kPa): 1491.6 ± 1.5 kg/m3 | mass density (8545 kPa): 1491.6 ± 1.6 kg/m3 | mass density (8576 kPa): 1491.9 ± 1.6 kg/m3 | mass density (8606 kPa): 1492 ± 1.6 kg/m3 | mass density (8641 kPa): 1492.2 ± 1.6 kg/m3 | mass density (8667 kPa): 1492.3 ± 1.6 kg/m3 | mass density (8702 kPa): 1492.4 ± 1.6 kg/m3 | mass density (8724 kPa): 1492.5 ± 1.6 kg/m3 | mass density (8755 kPa): 1492.6 ± 1.6 kg/m3 | mass density (8782 kPa): 1492.8 ± 1.6 kg/m3 | mass density (8808 kPa): 1492.9 ± 1.6 kg/m3 | mass density (8841 kPa): 1492.9 ± 1.6 kg/m3 | mass density (8868 kPa): 1493.1 ± 1.6 kg/m3 | mass density (8904 kPa): 1493.4 ± 1.6 kg/m3 | mass density (8936 kPa): 1493.4 ± 1.6 kg/m3 | mass density (8973 kPa): 1493.5 ± 1.6 kg/m3 | mass density (9000 kPa): 1493.8 ± 1.6 kg/m3 | mass density (9041 kPa): 1493.9 ± 1.6 kg/m3 | mass density (9068 kPa): 1494 ± 1.6 kg/m3 | mass density (9104 kPa): 1494.2 ± 1.6 kg/m3 | mass density (9140 kPa): 1494.3 ± 1.6 kg/m3 | mass density (9167 kPa): 1494.5 ± 1.6 kg/m3 | mass density (9194 kPa): 1494.6 ± 1.6 kg/m3 | mass density (9230 kPa): 1494.7 ± 1.6 kg/m3 | mass density (9266 kPa): 1495 ± 1.6 kg/m3 | mass density (9294 kPa): 1495.1 ± 1.6 kg/m3 | mass density (9330 kPa): 1495.1 ± 1.6 kg/m3 | mass density (9361 kPa): 1495.3 ± 1.6 kg/m3 | mass density (9403 kPa): 1495.5 ± 1.6 kg/m3 | mass density (9441 kPa): 1495.7 ± 1.6 kg/m3 | mass density (9483 kPa): 1495.8 ± 1.6 kg/m3 | mass density (9641 kPa): 1496.6 ± 1.6 kg/m3 | mass density (9679 kPa): 1496.6 ± 1.6 kg/m3 | mass density (9707 kPa): 1496.9 ± 1.6 kg/m3 | mass density (9754 kPa): 1497 ± 1.6 kg/m3 | mass density (9777 kPa): 1497.2 ± 1.6 kg/m3 | mass density (9809 kPa): 1497.3 ± 1.6 kg/m3 | mass density (9842 kPa): 1497.5 ± 1.6 kg/m3 | mass density (9875 kPa): 1497.5 ± 1.6 kg/m3 | mass density (9912 kPa): 1497.8 ± 1.6 kg/m3 | mass density (9941 kPa): 1497.8 ± 1.6 kg/m3 | mass density (9979 kPa): 1498 ± 1.6 kg/m3 | mass density (10009 kPa): 1498.1 ± 1.6 kg/m3 | mass density (10055 kPa): 1498.3 ± 1.6 kg/m3 | mass density (10080 kPa): 1498.4 ± 1.6 kg/m3 | mass density (10109 kPa): 1498.5 ± 1.6 kg/m3 | mass density (10139 kPa): 1498.7 ± 1.6 kg/m3 | mass density (10164 kPa): 1498.8 ± 1.6 kg/m3 | mass density (10198 kPa): 1499 ± 1.6 kg/m3 | mass density (10233 kPa): 1499.2 ± 1.6 kg/m3 | mass density (10254 kPa): 1499.2 ± 1.6 kg/m3 | mass density (10289 kPa): 1499.3 ± 1.6 kg/m3 | mass density (10314 kPa): 1499.5 ± 1.6 kg/m3 | mass density (10348 kPa): 1499.7 ± 1.6 kg/m3 | mass density (10370 kPa): 1499.7 ± 1.6 kg/m3 | mass density (10399 kPa): 1499.7 ± 1.6 kg/m3 | mass density (10424 kPa): 1500.1 ± 1.6 kg/m3
